# Assay results reported in ChEMBL document CHEMBL1201862, “PubChem BioAssay data set” (2004).
#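 Test compounds were applied to cells in 96-well plates for 48 hours at 5 doses. At the GI50, growth is halved.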 Activity calls are given as the source filed them. Rule as the data show it: active = GI50 up to about 1.1 µM and inactive = higher.
# Columns and labels:
# Experiment in all cases: NCI tumour cell line growth inhibition, 48 h
# NCI-H460 = tested on: NCI-H460
# NCI-H23 = tested on: NCI-H23
# U-251 = tested on: U-251
# Malme-3M = tested on: Malme-3M
# PC-3 = tested on: PC-3
# ACHN = tested on: ACHN
# SF-268 = tested on: SF-268
# KM12 = tested on: KM12
# HT-29 = tested on: HT-29
# DU-145 = tested on: DU-145
# HOP-92 = tested on: HOP-92
# SF-539 = tested on: SF-539
# RXF 393 = tested on: RXF 393
# MCF7 = tested on: MCF7
# TK-10 = tested on: TK-10
# HOP-62 = tested on: HOP-62
# OVCAR-8 = tested on: OVCAR-8
# UO-31 = tested on: UO-31
# MOLT-4 = tested on: MOLT-4
# EKVX = tested on: EKVX
# HL-60 = tested on: HL-60
# SK-MEL-2 = tested on: SK-MEL-2
# IGROV-1 = tested on: IGROV-1
# OVCAR-3 = tested on: OVCAR-3
# MDA-MB-435 = tested on: MDA-MB-435
# UACC-257 = tested on: UACC-257
# SN12C = tested on: SN12C
# NCI-H226 = tested on: NCI-H226
# SK-MEL-28 = tested on: SK-MEL-28
# HCC 2998 = tested on: HCC 2998
# OVCAR-5 = tested on: OVCAR-5
# K562 = tested on: K562
# SK-MEL-5 = tested on: SK-MEL-5
# Hs-578T = tested on: Hs-578T
# A549 = tested on: A549
# OVCAR-4 = tested on: OVCAR-4
# 786-0 = tested on: 786-0
# HCT-15 = tested on: HCT-15
# UACC-62 = tested on: UACC-62
# CAKI-1 = tested on: CAKI-1
# SF-295 = tested on: SF-295
# SR = tested on: SR
# LOX IMVI = tested on: LOX IMVI
# SNB-19 = tested on: SNB-19
# SNB-75 = tested on: SNB-75
# T47D = tested on: T47D
# SW-620 = tested on: SW-620
# MDA-MB-231 = tested on: MDA-MB-231
# MDA-N = tested on: MDA-N
# COLO 205 = tested on: COLO 205
# CCRF-CEM = tested on: CCRF-CEM
# HCT-116 = tested on: HCT-116
# RPMI-8226 = tested on: RPMI-8226
# NCI/ADR-RES = tested on: NCI/ADR-RES
# M14 = tested on: M14
# SK-OV-3 = tested on: SK-OV-3
# A498 = tested on: A498
smiles,measurement,setting,value
Nc1ncnc2c1ncn2C1C=CC(COS(N)(=O)=O)C1 (centres undefined),GI50,NCI-H460,12.2 µM (inactive)
same,GI50,NCI-H23,9.77 µM (inactive)
same,GI50,U-251,5.26 µM (inactive)
same,GI50,Malme-3M,> 100 µM (inactive)
same,GI50,PC-3,12 µM (inactive)
same,GI50,ACHN,23.9 µM (inactive)
same,GI50,SF-268,33.7 µM (inactive)
same,GI50,KM12,19.2 µM (inactive)
same,GI50,HT-29,14.9 µM (inactive)
same,GI50,DU-145,66.8 µM (inactive)
same,GI50,HOP-92,15.7 µM (inactive)
same,GI50,SF-539,0.676 µM (active)
same,GI50,RXF 393,12.4 µM (inactive)
same,GI50,MCF7,6.43 µM (inactive)
same,GI50,TK-10,> 100 µM (inactive)
same,GI50,HOP-62,16.8 µM (inactive)
same,GI50,OVCAR-8,13.1 µM (inactive)
same,GI50,UO-31,79.1 µM (inactive)
same,GI50,MOLT-4,7.85 µM (inactive)
same,GI50,EKVX,> 100 µM (inactive)
same,GI50,HL-60,4.19 µM (inactive)
same,GI50,SK-MEL-2,39.3 µM (inactive)
same,GI50,IGROV-1,34.2 µM (inactive)
same,GI50,OVCAR-3,31 µM (inactive)
same,GI50,MDA-MB-435,35.2 µM (inactive)
same,GI50,UACC-257,63.5 µM (inactive)
same,GI50,SN12C,8.2 µM (inactive)
same,GI50,NCI-H226,55.1 µM (inactive)
same,GI50,SK-MEL-28,20.5 µM (inactive)
same,GI50,HCC 2998,35.7 µM (inactive)
same,GI50,OVCAR-5,64.1 µM (inactive)
same,GI50,K562,16.2 µM (inactive)
same,GI50,SK-MEL-5,30.4 µM (inactive)
same,GI50,Hs-578T,15.6 µM (inactive)
same,GI50,A549,36.2 µM (inactive)
same,GI50,OVCAR-4,34.3 µM (inactive)
same,GI50,786-0,18.5 µM (inactive)
same,GI50,HCT-15,9.27 µM
same,GI50,UACC-62,20.6 µM (inactive)
same,GI50,CAKI-1,3.28 µM (inactive)
same,GI50,SF-295,40.9 µM (inactive)
same,GI50,SR,8.55 µM (inactive)
same,GI50,LOX IMVI,5.53 µM (inactive)
same,GI50,SNB-19,9.23 µM (inactive)
same,GI50,SNB-75,21.9 µM (inactive)
same,GI50,T47D,8.81 µM (inactive)
same,GI50,SW-620,12.9 µM (inactive)
same,GI50,MDA-MB-231,20.2 µM (inactive)
same,GI50,MDA-N,22.5 µM (inactive)
same,GI50,COLO 205,16.9 µM (inactive)
same,GI50,CCRF-CEM,18.4 µM (inactive)
same,GI50,HCT-116,9.38 µM (inactive)
same,GI50,RPMI-8226,2.93 µM (inactive)
same,GI50,NCI/ADR-RES,66.2 µM (inactive)
same,GI50,M14,22.2 µM (inactive)
same,GI50,SK-OV-3,52.7 µM (inactive)
Cc1nnc2n1-c1ccccc1-c1[nH]c3ccccc3c1C2,GI50,NCI-H460,30.7 µM (inactive)
same,GI50,NCI-H23,63.7 µM (inactive)
same,GI50,Malme-3M,78.9 µM (inactive)
same,GI50,PC-3,46.1 µM (inactive)
same,GI50,ACHN,39.9 µM (inactive)
same,GI50,SF-268,> 100 µM (inactive)
same,GI50,KM12,94.4 µM (inactive)
same,GI50,HT-29,68.2 µM (inactive)
same,GI50,DU-145,> 100 µM (inactive)
same,GI50,HOP-92,93.8 µM (inactive)
same,GI50,SF-539,> 100 µM (inactive)
same,GI50,RXF 393,44.1 µM (inactive)
same,GI50,MCF7,> 100 µM (inactive)
same,GI50,TK-10,> 100 µM (inactive)
same,GI50,HOP-62,58.9 µM (inactive)
same,GI50,OVCAR-8,38.1 µM (inactive)
same,GI50,UO-31,28.8 µM (inactive)
same,GI50,MOLT-4,45 µM (inactive)
same,GI50,EKVX,> 100 µM (inactive)
same,GI50,HL-60,21.2 µM (inactive)
same,GI50,IGROV-1,70 µM (inactive)
same,GI50,OVCAR-3,76.6 µM (inactive)
same,GI50,MDA-MB-435,60.1 µM (inactive)
same,GI50,UACC-257,59.8 µM (inactive)
same,GI50,SN12C,> 100 µM (inactive)
same,GI50,NCI-H226,> 100 µM (inactive)
same,GI50,SK-MEL-28,73.5 µM (inactive)
same,GI50,OVCAR-5,> 100 µM (inactive)
same,GI50,K562,24.2 µM (inactive)
same,GI50,SK-MEL-5,26.2 µM (inactive)
same,GI50,Hs-578T,> 100 µM (inactive)
same,GI50,A549,91 µM (inactive)
same,GI50,OVCAR-4,45.2 µM (inactive)
same,GI50,786-0,83.8 µM (inactive)
same,GI50,UACC-62,25.1 µM (inactive)
same,GI50,CAKI-1,51.1 µM (inactive)
same,GI50,SF-295,56.1 µM (inactive)
same,GI50,SR,22.8 µM (inactive)
same,GI50,LOX IMVI,89.9 µM (inactive)
same,GI50,SNB-19,> 100 µM (inactive)
same,GI50,SNB-75,8.24 µM (inactive)
same,GI50,T47D,> 100 µM (inactive)
same,GI50,SW-620,> 100 µM (inactive)
same,GI50,MDA-MB-231,58.5 µM (inactive)
same,GI50,MDA-N,61.1 µM (inactive)
same,GI50,COLO 205,45 µM (inactive)
same,GI50,CCRF-CEM,53.8 µM (inactive)
same,GI50,HCT-116,54.8 µM (inactive)
same,GI50,RPMI-8226,32.2 µM (inactive)
same,GI50,NCI/ADR-RES,69.8 µM (inactive)
same,GI50,A498,19.2 µM (inactive)
same,GI50,M14,43.1 µM (inactive)
same,GI50,SK-OV-3,> 100 µM (inactive)
